Reference: patent US20200223889A1, “Bicyclic Compounds Capable of Binding to Melanocortin 4 Receptor” (Novo Nordisk A/S, priority 2017, published 2020)
Read-outs that look alike come from different tables or passages of the source. Positions of bridges follow the written chain, without caps; N, C: chain ends. Non-standard residues stand in square brackets, D forms with d. Residues, ends and D or L forms follow the SMILES beside them. Phe(3,4-Cl2) = N[C@@H](Cc1ccc(Cl)c(Cl)c1)C(=O)O; Hyp = O=C(O)[C@@H]1C[C@@H](O)CN1; Dab = NCC[C@H](N)C(=O)O; Aib = CC(C)(N)C(=O)O; GABA = NCCCC(=O)O; Sar = CNCC(=O)O

Columns and labels:
human MC4R [1] = molecular target: T1, human MC4R (Homo sapiens, UniProt P32245); assay: Functional cAMP assay (CisBio HTRF) in BHK cells expressing human MC4R; type: cell-based; conditions: for MC1R/MC4R cAMP EC50 ratio: MC1R cAMP EC50 divided by MC4R cAMP EC50
T1 construct: expressed in transfected cells
Summary of the method: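 Stably transfected BHK cells expressing human MC1R or MC4R; cAMP quantified by HTRF (cAMP-d2/cryptate) after 30 min compound stimulation at 25 °C in DMEM-based buffer with 1 mM IBMX. Compounds were prepared as 10-fold serial dilutions starting at 2 μM (working solution, 2× final). Readout after 1 h at 25 °C; non-linear regression.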

human MC1R = molecular target: T2, human MC1R (Homo sapiens, UniProt Q01726); assay: Functional cAMP assay (CisBio HTRF) in BHK cells expressing human MC1R; type: cell-based
T2 construct: expressed in transfected cells
Procedure: In order to assess the potency of the compounds on human MC1R and human MC4R cAMP signalling was measured.
cAMP induction was measured by c-AMPdynamic2 assay, HTRF 62AM4PEC system from CisBio for the human MC1R and human MC4R according to the protocol provided by the vendor. BHK cells expressing the human MC1 or MC4 receptor were generated by stable transfection with expression vectors encoding the cDNA of either MC1R or MC4R.
In details; 25 μl compound—or standard solution were added in the respective wells. Compound was reconstituted in buffer (DMEM w/o phenol red, 10 mM
Hepes, lx Glutamine, 0.1% OV-albumin1, 1 mM IBMX) and serially diluted starting at 2 μM, 10-fold seven times. Dilutions were carried out in the same aforementioned buffer to the desired working concentration ranges (2× higher than the final concentration). 25 μl cell solution was then added and allowed to incubate for 30 min while lightly shaking, at 25° C. […] The provided components for the assay were reconstituted according to the CisBio assay protocol “3.1 supplied reagents and preparation procedure” in MilliQ purification system H2O and diluted 1:20 in lysis buffer. 25 μl cAMP-d2 and 25 μl Cryptate conjugate were added to all wells.
Plates were centrifuged at 1500 rpm for 30 sec and incubated for 1 h, lightly shaking, at 25° C. in a hotel stacker. The plates were read on Mithras LB 940 provided by Berthold Technologies The data were analysed by non-linear regression analysis of binding curves, using the Windows™ program GraphPad™ Prism (GraphPad Software, USA).
The latter is used when no full curve can be obtained in the concentration ranges indicated above.

human MC4R [2] = molecular target: T1, human MC4R; assay: 125NDP-α-MSH competitive binding to membranes of BHK cells expressing human MC4 receptor (filtration assay)
Summary of the method: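 Displacement of ^125NDP-α-MSH (apx. […] final) was measured by filtration after 2 h at 25 °C, using diluted membranes of stably transfected BHK cells in pH 7.0 HEPES buffer. Compounds spanned 1 μM to 0.001 nM; binding curves were analysed by non-linear regression.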

[3] = BHK cells expressing human MC4R, '>' = highest dose used with no response, read-out: MC4R cAMP EC50
[4] = BHK cells expressing human MC1R, '>' = highest dose used with no response, read-out: MC1R cAMP EC50
[5] = human MC4R, BHK cell membranes, 125NDP-α-MSH radioligand, read-out: MC4R binding Ki

T2 sequence (Q01726 whole entry): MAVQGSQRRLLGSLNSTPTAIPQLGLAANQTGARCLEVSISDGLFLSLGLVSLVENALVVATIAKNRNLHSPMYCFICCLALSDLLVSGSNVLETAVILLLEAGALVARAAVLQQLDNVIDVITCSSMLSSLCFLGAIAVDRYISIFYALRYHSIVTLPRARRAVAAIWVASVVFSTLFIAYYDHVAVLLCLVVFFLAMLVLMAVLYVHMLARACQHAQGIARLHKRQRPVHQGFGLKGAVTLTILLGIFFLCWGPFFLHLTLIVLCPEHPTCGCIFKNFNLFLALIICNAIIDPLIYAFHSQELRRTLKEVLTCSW
T1 sequence (P32245 whole entry): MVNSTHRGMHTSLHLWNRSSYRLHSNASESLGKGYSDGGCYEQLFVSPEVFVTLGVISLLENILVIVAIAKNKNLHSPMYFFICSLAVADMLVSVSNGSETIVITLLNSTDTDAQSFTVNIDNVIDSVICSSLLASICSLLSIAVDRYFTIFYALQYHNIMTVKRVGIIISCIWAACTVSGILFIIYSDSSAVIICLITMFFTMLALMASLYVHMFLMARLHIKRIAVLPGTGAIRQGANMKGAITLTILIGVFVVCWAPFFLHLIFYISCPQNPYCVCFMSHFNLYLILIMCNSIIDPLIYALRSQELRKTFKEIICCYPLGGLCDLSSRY

EC50 (human MC4R [1]; [3]) [nM]	EC50 (human MC1R; [4]) [nM]	Ki (human MC4R [2]; [5]) [nM]	MC1R/MC4R cAMP EC50 ratio (human MC4R [1])	SMILES	EC50 (human MC4R [1]) [nM]	EC50 (human MC1R) [nM]	Ki (human MC4R [2]) [nM]
0.01	0.28	0.03	28	N=C(N)NCCC[C@@H]1NC(=O)[C@@H](Cc2ccccc2)NC(=O)[C@H](Cc2c[nH]cn2)NC(=O)CCCNC(=O)[C@@H]2CSSC[C@H](NC(=O)[C@H](Cc3c[nH]c4ccccc34)NC1=O)C(=O)NCCCC(=O)N[C@@H](Cc1c[nH]cn1)C(=O)N[C@H](Cc1ccccc1)C(=O)N[C@@H](CCCNC(=N)N)C(=O)N[C@@H](Cc1c[nH]c3ccccc13)C(=O)N2 [Chem. 35, c[c[Cys-GABA-His-D-Phe-Arg-Trp- Cys]-GABA-His-D-Phe-Arg-Trp]] (cyclo(C[GABA]H[dF]RWC[GABA]H[dF]RW); disulfide 1-7)	–	–	–
4.22	> 3.7	5.64	–	CC1(C)NC(=O)[C@@H]2CSSC[C@H](NC(=O)[C@H](Cc3c[nH]c4ccccc34)NC(=O)[C@H](CCCNC(=N)N)NC(=O)[C@@H](Cc3ccccc3)NC(=O)[C@@H]3C[C@@H](O)CN3C1=O)C(=O)NC(C)(C)C(=O)N1C[C@H](O)C[C@H]1C(=O)N[C@H](Cc1ccccc1)C(=O)N[C@@H](CCCNC(=N)N)C(=O)N[C@@H](Cc1c[nH]c3ccccc13)C(=O)N2 [Chem. 38, c[c[Cys-Aib-Hyp-D-Phe-Arg-Trp- Cys]-Aib-Hyp-D-Phe-Arg-Trp]] (cyclo([Aib][Hyp][dF]RWC[Aib][Hyp][dF]RWC); disulfide 6-12)	–	–	–
> 1000	> 100	≥ 10000	–	C[C@@H]1NC(=O)[C@@H]2CSSC[C@H](NC(=O)[C@H](Cc3c[nH]c4ccccc34)NC(=O)[C@H](CNC(=N)N)NC(=O)[C@@H](Cc3ccccc3)NC(=O)[C@H](Cc3c[nH]cn3)NC1=O)C(=O)N[C@@H](C)C(=O)N[C@@H](Cc1c[nH]cn1)C(=O)N[C@H](Cc1ccccc1)C(=O)N[C@@H](CNC(=N)N)C(=O)N[C@@H](Cc1c[nH]c3ccccc13)C(=O)N2 [Chem. 42, c[c[Cys-Ala-His-D-Phe-AGP-Trp- Cys]-Ala-His-D-Phe-AGP-Trp]]	–	–	–
5.65	> 5.5	7.86	>1	CC1(C)NC(=O)[C@@H]2CSSC[C@H](NC(=O)[C@H](Cc3c[nH]c4ccccc34)NC(=O)[C@H](CCN)NC(=O)[C@@H](Cc3ccccc3)NC(=O)[C@H](Cc3c[nH]cn3)NC1=O)C(=O)NC(C)(C)C(=O)N[C@@H](Cc1c[nH]cn1)C(=O)N[C@H](Cc1ccccc1)C(=O)N[C@@H](CCN)C(=O)N[C@@H](Cc1c[nH]c3ccccc13)C(=O)N2 [Chem. 46, c[c[Cys-Aib-His-D-Phe-Dab-Trp- Cys]-Aib-His-D-Phe-Dab-Trp]] (cyclo([Aib]H[dF][Dab]WC[Aib]H[dF][Dab]WC); disulfide 6-12)	–	–	–
0.004	0.16	0.01	40	C[C@@H]1NC(=O)[C@@H]2CSSC[C@H](NC(=O)[C@H](Cc3c[nH]c4ccccc34)NC(=O)[C@H](CCCNC(=N)N)NC(=O)[C@@H](Cc3ccccc3)NC(=O)[C@H](Cc3c[nH]cn3)NC1=O)C(=O)N[C@@H](C)C(=O)N[C@@H](CCCCN)C(=O)N[C@@H](CCCCN)C(=O)N[C@@H](CCCCN)C(=O)N[C@@H](CCCNC(=N)N)C(=O)N2 [Chem. 59, c[c[Cys-Ala-His-D-Phe-Arg-Trp-Cys]- Ala-Lys-Lys-Lys-Arg]] (cyclo(AH[dF]RWCAKKKRC); disulfide 6-12)	–	–	–
0.31	> 1	0.22	>3	C[C@@H]1NC(=O)[C@@H]2CSSC[C@H](NC(=O)[C@H](Cc3c[nH]c4ccccc34)NC(=O)[C@H](CCCCN)NC(=O)[C@H](CCCCN)NC(=O)[C@H](CCCCN)NC1=O)C(=O)NC(C)(C)C(=O)N[C@@H](Cc1c[nH]cn1)C(=O)N[C@H](Cc1ccccc1)C(=O)N[C@@H](Cc1c[nH]cn1)C(=O)N[C@@H](Cc1c[nH]c3ccccc13)C(=O)N2 [Chem. 61, c[c[Cys-Aib-His-D-Phe-His-Trp-Cys]- Ala-Lys-Lys-Lys-Trp]] (cyclo(AKKKWC[Aib]H[dF]HWC); disulfide 6-12)	–	–	–
0.17	> 1	0.13	>6	C[C@@H]1NC(=O)[C@@H]2CSSC[C@H](NC(=O)[C@H](Cc3c[nH]c4ccccc34)NC(=O)[C@H](CCCCN)NC(=O)[C@H](CCCCN)NC(=O)[C@H](CCCCN)NC1=O)C(=O)N1CCC[C@H]1C(=O)N[C@@H](Cc1c[nH]cn1)C(=O)N[C@H](Cc1ccccc1)C(=O)N[C@@H](Cc1c[nH]cn1)C(=O)N[C@@H](Cc1c[nH]c3ccccc13)C(=O)N2 [Chem. 62, c[c[Cys-Pro-His-D-Phe-His-Trp-Cys]- Ala-Lys-Lys-Lys-Trp]] (cyclo(AKKKWCPH[dF]HWC); disulfide 6-12)	–	–	–
0.01	0.22	0.03	22	C[C@@H]1NC(=O)[C@@H]2CSSC[C@H](NC(=O)[C@H](Cc3ccc(Cl)c(Cl)c3)NC(=O)[C@H](CCCNC(=N)N)NC(=O)[C@@H](Cc3ccccc3)NC(=O)[C@H](Cc3c[nH]cn3)NC1=O)C(=O)N[C@@H](C)C(=O)N[C@@H](CCCCN)C(=O)N[C@@H](CCCCN)C(=O)N[C@@H](CCCCN)C(=O)N[C@@H](Cc1c[nH]c3ccccc13)C(=O)N2 [Chem. 66, c[c[Cys-Ala-His-D-Phe-Arg-3,4-DiCl- Phe-Cys]-Ala-Lys-Lys-Lys-Trp]] (cyclo(AH[dF]R[Phe(3,4-Cl2)]CAKKKWC); disulfide 6-12)	–	–	–
–	> 50	0.3	>40	C[C@@H]1NC(=O)[C@@H]2CSSC[C@H](NC(=O)[C@H](Cc3c[nH]c4ccccc34)NC(=O)[C@H](CCCCN)NC(=O)[C@H](CCCCN)NC(=O)[C@H](CCCCN)NC1=O)C(=O)N(C)CC(=O)N[C@@H](Cc1c[nH]cn1)C(=O)N[C@H](Cc1ccccc1)C(=O)N[C@@H](Cc1c[nH]cn1)C(=O)N[C@@H](Cc1c[nH]c3ccccc13)C(=O)N2 [Chem. 73, c[c[Cys-Sar-His-D-Phe-His-Trp-Cys]- Ala-Lys-Lys-Lys-Trp]] (cyclo(AKKKWC[Sar]H[dF]HWC); disulfide 6-12)	–	–	–

SMILES	EC50 (human MC4R [1]; [3]) [nM]	EC50 (human MC1R; [4]) [nM]	Ki (human MC4R [2]; [5]) [nM]	MC1R/MC4R cAMP EC50 ratio (human MC4R [1])	EC50 (human MC4R [1]) [nM]	EC50 (human MC1R) [nM]	Ki (human MC4R [2]) [nM]
N=C(N)NCCC[C@@H]1NC(=O)[C@@H](Cc2ccccc2)NC(=O)[C@H](Cc2c[nH]cn2)NC(=O)[C@H]2CCCN2C(=O)[C@@H]2CSSC[C@H](NC(=O)[C@H](Cc3c[nH]c4ccccc34)NC1=O)C(=O)N1CCC[C@@H]1C(=O)N[C@@H](Cc1c[nH]cn1)C(=O)N[C@H](Cc1ccccc1)C(=O)N[C@@H](CCCNC(=N)N)C(=O)N[C@@H](Cc1c[nH]c3ccccc13)C(=O)N2 [Chem. 33, c[c[Cys-D-Pro-His-D-Phe-Arg-Trp- Cys]-D-Pro-His-D-Phe-Arg-Trp]] (cyclo(C[dP]H[dF]RWC[dP]H[dF]RW); disulfide 1-7)	19.8	> 1	27.8	–	–	–	–
C[C@@H]1NC(=O)[C@@H]2CSSC[C@H](NC(=O)[C@H](Cc3c[nH]c4ccccc34)NC(=O)[C@H](CCCNC(=N)N)NC(=O)[C@@H](Cc3ccccc3)NC(=O)[C@H](Cc3c[nH]cn3)NC1=O)C(=O)N[C@@H](C)C(=O)N[C@@H](CCC(=O)O)C(=O)N[C@@H](CCC(=O)O)C(=O)N[C@@H](CCC(=O)O)C(=O)N[C@@H](Cc1c[nH]c3ccccc13)C(=O)N2 [Chem. 44, c[c[Cys-Ala-His-D-Phe-Arg-Trp-Cys]- Ala-Glu-Glu-Glu-Trp]] (cyclo(AEEEWCAH[dF]RWC); disulfide 6-12)	–	–	–	21	1.53	31.9	50.9
C[C@@H]1NC(=O)[C@@H]2CSSC[C@H](NC(=O)[C@H](Cc3c[nH]c4ccccc34)NC(=O)[C@H](CCCNC(=N)N)NC(=O)[C@H](Cc3ccccc3)NC(=O)[C@H](Cc3c[nH]cn3)NC1=O)C(=O)N[C@@H](C)C(=O)N[C@@H](Cc1c[nH]cn1)C(=O)N[C@@H](Cc1ccccc1)C(=O)N[C@@H](CCCNC(=N)N)C(=O)N[C@@H](Cc1c[nH]c3ccccc13)C(=O)N2 [Chem. 56, c[c[Cys-Ala-His-Phe-Arg-Trp-Cys]- Ala-His-Phe-Arg-Trp]]	–	–	–	80	0.44	35.3	1.82
